Reference: US10172868B2, “Substituted quinazolines for inhibiting kinase activity” (NeuPharma, Inc., priority 2013, dated 2019)

Experiments:
JAK2 = JAK2 (Homo sapiens (Human), UniProt O60674); experiment: Z'-LYTE kinase inhibition assay, JAK2; format: biochemical; conditions: compound at 0.041 μM; read-out: % inhibition against JAK2
Protocol: (§1) Inhibitory activities of compounds against BTK, EGFR and EGFR mutants (EGFR L858R, EGFR T790M, EGFR L858R/T790M), FGFR1, FGFR2, JAK2, JAK3 and KDR were measured by Invitrogen using Z'-LYTE® Method as briefly described in the following.
(§2) Test Compounds are screened in 1% DMSO (final) in the well. For 10 point titrations, 3-fold serial dilutions are conducted from the starting concentration. All ATP Solutions are diluted to a 4× working concentration in Kinase Buffer (50 mM HEPES pH 7.5, 0.01% BRIJ-35, 10 mM MgCl2, 1 mM EGTA). Peptide/Kinase Mixtures are diluted to a 2× working concentration in the appropriate Kinase Buffers as described below.
(v) Peptide/Kinase Mixtures for Measurement of JAK2:
The 2×JAK2/Tyr 06 mixture is prepared in 50 mM HEPES pH 7.5, 0.01% BRIJ-35, 10 mM MgCl2, 1 mM EGTA. The final 10 μL Kinase Reaction consists of 0.06-0.81 ng JAK2 and 2 μM Tyr 06 in 50 mM HEPES pH 7.5, 0.01% BRIJ-35, 10 mM MgCl2, 1 mM EGTA. After the 1 hour Kinase Reaction incubation, 5 μL of a 1:64 dilution of Development Reagent A is added.
(§3) Reaction starts by 30-second shaking of mixture consisting of 2.5 μL 4× test compound, […] 2× kinase reaction mixture and 2.5 μL 4×ATP Solution on Bar-coded Corning, low volume NBS, black 384-well plate (Corning Cat. #3676). Then the mixture is incubated for 60-minute at room temperature for the kinase reaction, followed by addition of 5 μL of a 1:1024 dilution of development reagent A and 30-second plate shake. The mixture is then incubated for another 60-minute at room temperature for development reaction. Finally fluorescence is read by plate reader.

EGFR (ErbB1) T790M L858R = EGFR (ErbB1) T790M L858R (Homo sapiens (Human), UniProt P00533, L858R/T790M); experiment: Z'-LYTE kinase inhibition assay, EGFR L858R/T790M; format: biochemical; conditions: for inhibition at 1 µM: read-out: % inhibition against EGFR L858R/T790M (Compound at 1 μM); for inhibition at 0.0137 µM: read-out: % inhibition against EGFR L858R/T790M (Compound at 0.0137 μM); for IC50: read-out: IC50 against EGFR L858R/T790M
Sequence of EGFR (ErbB1) T790M L858R (P00533 25-1210 T790M/L858R): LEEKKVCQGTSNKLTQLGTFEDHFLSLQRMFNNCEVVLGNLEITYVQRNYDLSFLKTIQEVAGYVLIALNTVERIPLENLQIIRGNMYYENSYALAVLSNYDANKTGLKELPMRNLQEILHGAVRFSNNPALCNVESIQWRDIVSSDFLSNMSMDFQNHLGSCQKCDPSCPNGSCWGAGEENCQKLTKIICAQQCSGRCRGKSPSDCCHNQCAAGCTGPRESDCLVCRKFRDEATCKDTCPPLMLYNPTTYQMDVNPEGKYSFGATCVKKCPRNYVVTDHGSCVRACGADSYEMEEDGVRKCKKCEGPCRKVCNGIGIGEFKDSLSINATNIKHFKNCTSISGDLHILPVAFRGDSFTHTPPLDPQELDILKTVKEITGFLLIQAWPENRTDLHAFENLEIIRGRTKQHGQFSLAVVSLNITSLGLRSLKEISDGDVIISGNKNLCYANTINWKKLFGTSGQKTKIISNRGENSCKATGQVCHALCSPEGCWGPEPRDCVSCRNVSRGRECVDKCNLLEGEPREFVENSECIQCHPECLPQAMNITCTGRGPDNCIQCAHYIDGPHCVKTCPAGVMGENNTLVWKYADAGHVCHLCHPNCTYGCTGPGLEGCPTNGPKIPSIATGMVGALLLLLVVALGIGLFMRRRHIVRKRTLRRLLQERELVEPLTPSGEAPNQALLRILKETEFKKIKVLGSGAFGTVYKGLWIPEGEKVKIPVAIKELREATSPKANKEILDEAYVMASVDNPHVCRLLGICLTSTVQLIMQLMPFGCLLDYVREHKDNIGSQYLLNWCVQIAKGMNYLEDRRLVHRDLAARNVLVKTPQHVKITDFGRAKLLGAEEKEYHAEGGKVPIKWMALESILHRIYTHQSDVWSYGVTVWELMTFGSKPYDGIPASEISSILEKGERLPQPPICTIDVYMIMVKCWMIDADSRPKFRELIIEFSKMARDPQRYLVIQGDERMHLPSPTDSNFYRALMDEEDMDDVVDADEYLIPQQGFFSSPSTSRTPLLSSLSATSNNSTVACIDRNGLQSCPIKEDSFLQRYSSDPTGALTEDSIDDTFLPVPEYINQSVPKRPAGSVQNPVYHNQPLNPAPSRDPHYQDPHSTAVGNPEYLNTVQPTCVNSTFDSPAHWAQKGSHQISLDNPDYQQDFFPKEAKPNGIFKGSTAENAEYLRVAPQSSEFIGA
Method in brief: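 Z'-LYTE FRET peptide assay at 1% DMSO, 10-point 3-fold titrations; kinase/peptide mix in 50 mM HEPES pH 6.5, 0.01% BRIJ-35, 10 mM MgCl2, 1 mM EGTA, 0.02% NaN3. Kinase reaction ran 60 min at room temperature, followed by 60 min development and a fluorescence read. IC50 derived from the concentration series.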

BTK = BTK (Homo sapiens (Human), UniProt Q06187); experiment: Z'-LYTE kinase inhibition assay, BTK; format: biochemical; conditions: for inhibition at 0.041 µM: compound at 0.041 μM, read-out: % inhibition against BTK; for IC50: read-out: IC50 against BTK
Sequence of BTK (Q06187 whole entry): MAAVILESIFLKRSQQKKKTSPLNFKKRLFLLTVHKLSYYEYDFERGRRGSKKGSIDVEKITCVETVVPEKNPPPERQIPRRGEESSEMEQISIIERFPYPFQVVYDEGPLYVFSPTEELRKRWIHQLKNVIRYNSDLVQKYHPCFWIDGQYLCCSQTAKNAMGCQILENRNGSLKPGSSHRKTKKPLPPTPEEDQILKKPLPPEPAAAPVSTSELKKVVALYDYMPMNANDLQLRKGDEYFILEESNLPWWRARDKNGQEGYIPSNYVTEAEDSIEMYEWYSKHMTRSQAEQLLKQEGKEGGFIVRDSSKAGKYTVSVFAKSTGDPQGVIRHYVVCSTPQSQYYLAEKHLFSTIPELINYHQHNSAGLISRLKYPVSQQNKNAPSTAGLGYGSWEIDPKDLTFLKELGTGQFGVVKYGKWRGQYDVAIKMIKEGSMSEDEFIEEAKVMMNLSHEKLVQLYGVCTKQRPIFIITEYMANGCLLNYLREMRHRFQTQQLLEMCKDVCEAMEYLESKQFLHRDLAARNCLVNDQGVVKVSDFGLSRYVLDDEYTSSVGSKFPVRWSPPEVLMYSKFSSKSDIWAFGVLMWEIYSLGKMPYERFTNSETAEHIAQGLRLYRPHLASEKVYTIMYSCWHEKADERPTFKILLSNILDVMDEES
Method in brief: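 Z'-LYTE FRET assay with Tyr 01 peptide in 50 mM HEPES pH 7.5, 10 mM MgCl2, 1 mM EGTA, 0.01% BRIJ-35. Compounds in 1% DMSO were tested as 10-point, 3-fold titrations.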

H1975 cells = experiment: Inhibition of cancer cell growth, MTT assay, H1975; conditions: Homo sapiens, NCI-H1975, 72 h, read-out: IC50 in H1975 cells
FGFR1 = FGFR1 (Homo sapiens (Human), UniProt P11362); experiment: Z'-LYTE kinase inhibition assay, FGFR1; format: biochemical; conditions: compound at 0.041 μM; read-out: % inhibition against FGFR1
Sequence of FGFR1 (P11362 22-822): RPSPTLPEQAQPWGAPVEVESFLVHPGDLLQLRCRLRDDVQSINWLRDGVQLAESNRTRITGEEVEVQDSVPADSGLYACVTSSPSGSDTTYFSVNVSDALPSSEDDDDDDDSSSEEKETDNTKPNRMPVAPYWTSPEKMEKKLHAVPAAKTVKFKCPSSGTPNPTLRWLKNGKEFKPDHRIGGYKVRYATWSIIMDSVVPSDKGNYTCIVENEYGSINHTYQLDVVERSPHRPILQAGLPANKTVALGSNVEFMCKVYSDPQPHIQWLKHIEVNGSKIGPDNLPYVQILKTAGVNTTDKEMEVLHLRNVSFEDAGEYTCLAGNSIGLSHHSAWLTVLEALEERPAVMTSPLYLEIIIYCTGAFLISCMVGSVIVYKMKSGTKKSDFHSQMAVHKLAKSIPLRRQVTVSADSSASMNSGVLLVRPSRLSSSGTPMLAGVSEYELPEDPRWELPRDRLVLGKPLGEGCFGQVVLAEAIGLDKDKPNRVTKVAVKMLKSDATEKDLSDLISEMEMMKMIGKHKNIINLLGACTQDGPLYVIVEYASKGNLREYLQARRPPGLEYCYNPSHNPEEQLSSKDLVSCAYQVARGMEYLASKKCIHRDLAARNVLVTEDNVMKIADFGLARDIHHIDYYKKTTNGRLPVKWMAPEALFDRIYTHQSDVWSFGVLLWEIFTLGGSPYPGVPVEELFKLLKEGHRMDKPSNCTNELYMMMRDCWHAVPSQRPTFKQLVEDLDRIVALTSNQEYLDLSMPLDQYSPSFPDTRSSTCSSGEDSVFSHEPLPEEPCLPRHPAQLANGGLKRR
Protocol: as §1, §2
(v) Peptide/Kinase Mixtures for Measurement of FGFR1:
The 2×FGFR1/Tyr 04 mixture is prepared in 50 mM HEPES pH 7.5, 0.01% BRIJ-35, 10 mM MgCl2, 4 mM MnCl2, 1 mM EGTA, 2 mM DTT. The final 10 μL Kinase Reaction consists of 0.41-3.5 ng FGFR1 and 2 μM Tyr 04 in 50 mM HEPES pH 7.5, 0.01% BRIJ-35, 10 mM MgCl2, 2 mM MnCl2, 1 mM EGTA, 1 mM DTT. After the 1 hour Kinase Reaction incubation, 5 μL of a 1:64 dilution of Development Reagent B is added.
as §3
To determine IC50 of a compound against EGFR, EGFR mutant and other kinases, a series of concentrations of the compound were tested for the inhibition. […] The scale utilized in Table 4 is as follows: +++ less than 100 nM, ++ 100-500 nM and + greater than 500 nM.

EGFR (ErbB1) = EGFR (ErbB1) (Homo sapiens (Human), UniProt P00533); experiment: Z'-LYTE kinase inhibition assay, EGFR; format: biochemical; conditions: for inhibition at 1 µM: read-out: % inhibition against EGFR (Compound at 1 μM); for inhibition at 0.041 µM: read-out: % inhibition against EGFR (Compound at 0.041 μM); for IC50: read-out: IC50 against EGFR
Sequence of EGFR (ErbB1) (P00533 25-1210): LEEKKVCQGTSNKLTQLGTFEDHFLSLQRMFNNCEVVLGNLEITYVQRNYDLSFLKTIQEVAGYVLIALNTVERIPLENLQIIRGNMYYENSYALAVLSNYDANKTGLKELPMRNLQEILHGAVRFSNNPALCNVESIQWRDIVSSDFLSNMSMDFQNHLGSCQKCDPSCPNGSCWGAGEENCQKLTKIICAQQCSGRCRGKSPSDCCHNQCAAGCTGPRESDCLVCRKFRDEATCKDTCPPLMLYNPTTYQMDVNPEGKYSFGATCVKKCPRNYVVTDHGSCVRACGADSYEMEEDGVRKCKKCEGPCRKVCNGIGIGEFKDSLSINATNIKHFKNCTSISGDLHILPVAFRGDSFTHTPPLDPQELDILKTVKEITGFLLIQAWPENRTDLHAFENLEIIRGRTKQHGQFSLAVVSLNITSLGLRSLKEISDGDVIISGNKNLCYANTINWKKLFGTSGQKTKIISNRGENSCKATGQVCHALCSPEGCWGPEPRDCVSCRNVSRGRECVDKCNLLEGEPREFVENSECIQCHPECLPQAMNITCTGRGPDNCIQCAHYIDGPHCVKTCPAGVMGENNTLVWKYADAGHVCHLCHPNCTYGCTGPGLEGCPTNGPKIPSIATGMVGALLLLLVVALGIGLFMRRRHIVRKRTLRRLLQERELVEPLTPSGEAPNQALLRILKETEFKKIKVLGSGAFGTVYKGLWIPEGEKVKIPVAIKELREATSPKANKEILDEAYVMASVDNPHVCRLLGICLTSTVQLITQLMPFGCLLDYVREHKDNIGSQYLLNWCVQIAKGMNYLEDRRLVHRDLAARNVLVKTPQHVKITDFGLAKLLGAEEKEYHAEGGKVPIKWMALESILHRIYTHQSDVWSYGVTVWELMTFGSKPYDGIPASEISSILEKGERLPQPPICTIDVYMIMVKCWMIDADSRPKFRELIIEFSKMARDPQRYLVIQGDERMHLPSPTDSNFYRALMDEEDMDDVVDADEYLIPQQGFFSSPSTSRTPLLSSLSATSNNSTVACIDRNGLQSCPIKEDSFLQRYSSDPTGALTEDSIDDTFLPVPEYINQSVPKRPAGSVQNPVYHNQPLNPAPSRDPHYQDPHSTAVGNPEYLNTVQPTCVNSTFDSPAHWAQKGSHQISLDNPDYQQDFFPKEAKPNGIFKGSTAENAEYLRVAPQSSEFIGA
Method in brief: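 Z'-LYTE FRET assay run with 1.1-5.25 ng EGFR and 2 μM peptide substrate in 50 mM HEPES pH 7.5, 10 mM MgCl2, 2 mM MnCl2, 1 mM EGTA, 1 mM DTT, 0.01% BRIJ-35, 1% DMSO. Kinase reaction 60 min at room temperature, then 60 min development; IC50 from 10-point 3-fold titrations.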

HCC827 cells = experiment: cells; conditions: Homo sapiens, HCC827, 72 h, read-out: IC50 in HCC827 cells
H1299 cells = experiment: Inhibition of cancer cell growth, MTT assay, H1299; conditions: Homo sapiens, NCI-H1299, 72 h, read-out: IC50 in H1299 cells
Protocol: (§4) Inhibition of cell growth by compounds was measured using MTT assay (Mosmann, T., Journal of Immunological Methods, 1983, 65, 55-63). Tumor cell lines were purchased from ATCC (American Type Culture Collection, Manassas, Va.). All cell lines were maintained in RPMI 1640 (Hyclone) supplemented with 10% fetal bovine serum (FBS, Hyclone), glutamine (2 mM, Hyclone), and antibiotics (penicillin 100 U/mL and streptomycin 50 μg/mL) at 37° C. in a humidified atmosphere of 5% CO2 in air. Taxol (as a positive control. Sigma) and compounds were dissolved in DMSO (Sigma), and the final concentration of DMSO in the medium was 1%. Tumor cells were plated in 96-well plates at densities of about 4000 cells/well of a 96-well plate and allowed to adhere/grow for 24 h. They were then treated with various concentrations of drug for 72 h, 3-(4,5-Dimethylthiazol-2-yl)-2,5-diphenyltetrazolium bromide (MTT, Sigma) was used to determine the number of viable cells at the time of compound addition and the number of cells remaining after 72 h compound exposure. The number of cells remaining after 72 h was compared to the number of viable cells at the time of compound addition by measuring the absorbance at 570 nm, allowing for the calculation of growth inhibition.
(§5) All concentrations of compounds were tested in triplicate and controls were averaged over 4 wells. IC50 was calculated by plotting the concentration of compound vs the percentage of inhibition in treated wells using GraphPad Prism 5.

A431 cells = experiment: cells; conditions: Homo sapiens, A-431, 72 h, read-out: IC50 in A431 cells
H3255 cells = experiment: Inhibition of cancer cell growth, MTT assay, H3255; conditions: Homo sapiens, NCI-H3255, 72 h, read-out: IC50 in H3255 cells
Protocol: as §4, §5

Sequence of JAK2 (O60674 whole entry): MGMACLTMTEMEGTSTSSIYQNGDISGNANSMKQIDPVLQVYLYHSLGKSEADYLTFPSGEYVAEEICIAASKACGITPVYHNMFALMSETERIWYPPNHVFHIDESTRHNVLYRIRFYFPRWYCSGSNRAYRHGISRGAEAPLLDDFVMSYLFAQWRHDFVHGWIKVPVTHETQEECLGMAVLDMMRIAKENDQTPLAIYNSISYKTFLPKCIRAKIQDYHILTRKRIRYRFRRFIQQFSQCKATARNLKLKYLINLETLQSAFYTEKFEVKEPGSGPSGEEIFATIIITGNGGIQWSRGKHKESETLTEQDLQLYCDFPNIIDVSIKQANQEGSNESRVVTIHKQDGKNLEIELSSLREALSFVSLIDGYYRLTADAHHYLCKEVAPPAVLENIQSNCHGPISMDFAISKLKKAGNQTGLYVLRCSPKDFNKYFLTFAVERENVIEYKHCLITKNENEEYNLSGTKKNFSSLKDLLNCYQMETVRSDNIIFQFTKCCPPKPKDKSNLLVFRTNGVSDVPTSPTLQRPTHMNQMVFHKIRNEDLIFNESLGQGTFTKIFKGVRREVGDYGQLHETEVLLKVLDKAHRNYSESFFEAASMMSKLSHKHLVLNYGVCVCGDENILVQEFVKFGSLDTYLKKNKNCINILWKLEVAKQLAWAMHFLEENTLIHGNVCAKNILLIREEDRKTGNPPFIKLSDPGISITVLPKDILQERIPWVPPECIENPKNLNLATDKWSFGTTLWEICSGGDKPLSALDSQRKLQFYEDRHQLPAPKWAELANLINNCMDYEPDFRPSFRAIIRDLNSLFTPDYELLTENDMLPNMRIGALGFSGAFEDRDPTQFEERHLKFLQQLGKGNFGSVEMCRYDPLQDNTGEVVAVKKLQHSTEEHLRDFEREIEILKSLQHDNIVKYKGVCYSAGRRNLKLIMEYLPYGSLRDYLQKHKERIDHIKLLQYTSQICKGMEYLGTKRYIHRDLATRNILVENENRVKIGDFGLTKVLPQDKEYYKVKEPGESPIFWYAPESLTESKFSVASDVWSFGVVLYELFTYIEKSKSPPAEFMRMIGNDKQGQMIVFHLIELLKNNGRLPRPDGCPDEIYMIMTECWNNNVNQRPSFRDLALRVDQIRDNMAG

SMILES	inhibition at 0.041 µM (JAK2)	inhibition at 1 µM (EGFR (ErbB1) T790M L858R)	inhibition at 0.041 µM (BTK)	IC50 (H1975 cells)	inhibition at 0.041 µM (FGFR1)	inhibition at 1 µM (EGFR (ErbB1))	IC50 (HCC827 cells)	IC50 (H1299 cells)	inhibition at 0.0137 µM (EGFR (ErbB1) T790M L858R)	IC50 (A431 cells)	inhibition at 0.041 µM (EGFR (ErbB1))	IC50 (H3255 cells)	IC50 (EGFR (ErbB1) T790M L858R)	IC50 (BTK)	IC50 (EGFR (ErbB1))
C=CC(=O)Nc1cccc(-c2cccc3cnc(Nc4ccc(N5CCN(C(C)=O)CC5)nc4)nc23)c1 [Example C036, N-(3-(2-((6-(4-acetylpiperazin-1-yl)pyridin-3-yl)amino)quinazolin-8-yl)phenyl)acrylamide]				> 500 nM	< 50%		< 100 nM	> 500 nM							
C=CC(=O)Nc1cncc(-c2cccc3cnc(Nc4ccc(N5CCN(C)CC5)cc4)nc23)c1 [Example C040, N-(5-(2-((4-(4-methylpiperazin-1-yl)phenyl)amino)quinazolin-8-yl)pyridin-3-yl)acrylamide]	< 50%		> 50%	< 100 nM			< 100 nM	100 to 500 nM		100 to 500 nM	> 50%		< 100 nM		< 100 nM
C=CC(=O)Nc1cccc(-c2c(C)ccc3cnc(Nc4ccc(N5CCN(C)CC5)cc4)nc23)c1 [Example C034, N-(3-(7-methyl-2-((4-(4-methylpiperazin-1-yl)phenyl)amino)quinazolin-8-yl)phenyl)acrylamide]				< 100 nM		> 50%	< 100 nM	> 500 nM		> 500 nM	> 50%		< 100 nM		< 100 nM
C=CC(=O)Nc1cccc(-c2cccc3cnc(Nc4ccc(N5CCN(C)CC5)c(C(N)=O)c4)nc23)c1 [Example C085, 5-((8-(3-acrylamidophenyl)quinazolin-2-yl)amino)-2-(4-methylpiperazin-1-yl)benzamide]				< 100 nM				> 500 nM		100 to 500 nM	< 50%	> 500 nM	< 100 nM	< 100 nM	
CC(=O)Nc1cccc(-c2cccc3cnc(Nc4ccc(N5CCN(C)CC5)cc4)nc23)c1 [Example C022, N-(3-(2-((4-(4-methylpiperazin-1-yl)phenyl)amino)quinazolin-8-yl)phenyl)acetamide]	> 50%	> 50%	> 50%	> 500 nM	> 50%		< 100 nM								
Clc1ccccc1-c1cccc2cnc(Nc3ccc(N4CCNCC4)cc3)nc12 [Example C026, 8-(2-chlorophenyl)-N-(4-(piperazin-1-yl)phenyl)quinazolin-2-amine]	> 50%	> 50%	< 50%	> 500 nM	> 50%		> 500 nM								

More lines, main results first:

inhibition at 0.041 µM (JAK2)	inhibition at 1 µM (EGFR (ErbB1) T790M L858R)	inhibition at 0.041 µM (BTK)	IC50 (H1975 cells)	inhibition at 0.041 µM (FGFR1)	inhibition at 1 µM (EGFR (ErbB1))	IC50 (HCC827 cells)	IC50 (H1299 cells)	inhibition at 0.0137 µM (EGFR (ErbB1) T790M L858R)	IC50 (A431 cells)	inhibition at 0.041 µM (EGFR (ErbB1))	IC50 (H3255 cells)	SMILES	IC50 (EGFR (ErbB1) T790M L858R)	IC50 (BTK)	IC50 (EGFR (ErbB1))
< 50%	< 50%	< 50%	> 500 nM	< 50%	< 50%	> 500 nM						Fc1ccc(OCCN2CCOCC2)cc1-c1cccc2cnc(Nc3ccc(N4CCOCC4)cc3)nc12 [Example C023, 8-(2-fluoro-5-(2-morpholinoethoxy)phenyl)-N-(4-morpholinophenyl)quinazolin-2-amine]			
< 50%	> 50%	> 50%	100 to 500 nM		> 50%	< 100 nM	> 500 nM					C=CC(=O)Nc1cccc(-c2c(C)ccc3cnc(Nc4ccc(N5CCOCC5)cc4)nc23)c1 [Example C033, N-(3-(7-methyl-2-((4-morpholinophenyl)amino)quinazolin-8-yl)phenyl)acrylamide]			
			< 100 nM				> 500 nM	> 50%	100 to 500 nM	> 50%	> 500 nM	C=CC(=O)Nc1cccc(-c2cccc3cnc(Nc4ccc(NC5CN(CCO)C5)cc4)nc23)c1 [Example C099, N-(3-(2-((4-((1-(2-hydroxyethyl)azetidin-3-yl)amino)phenyl)amino)quinazolin-8-yl)phenyl)acrylamide]	< 100 nM	< 100 nM	< 100 nM
< 50%		< 50%	100 to 500 nM					> 50%	100 to 500 nM	< 50%		C=CC(=O)Nc1cccc(-c2cccc3cnc(Nc4ccc(N5CCN(C)CC5)nc4OC)nc23)c1 [Example C055, N-(3-(2-((2-methoxy-6-(4-methylpiperazin-1-yl)pyridin-3-yl)amino)quinazolin-8-yl)phenyl)acrylamide]			
> 50%		> 50%	100 to 500 nM					> 50%	> 500 nM	> 50%		C=CC(=O)Nc1cccc(-c2cccc3cnc(Nc4ccc(N5CCN(C)CC5)cc4)nc23)c1Cl [Example C054, N-(2-chloro-3-(2-((4-(4-methylpiperazin-1-yl)phenyl)amino)quinazolin-8-yl)phenyl)acrylamide]	< 100 nM		
			< 100 nM			< 100 nM	> 500 nM		> 500 nM			C=CC(=O)Nc1cccc(-c2c(C)ccc3cnc(Nc4ccc(N5CCN(C(C)=O)CC5)cc4)nc23)c1 [Example C035, N-(3-(2-((4-(4-acetylpiperazin-1-yl)phenyl)amino)-7-methylquinazolin-8-yl)phenyl)acrylamide]			
			< 100 nM				> 500 nM	> 50%	> 500 nM	> 50%	> 500 nM	C=CC(=O)Nc1cccc(-c2c(F)ccc3cnc(Nc4ccc(N5CCN(CCF)CC5)cc4)nc23)c1 [Example C088, N-(3-(7-fluoro-2-((4-(4-(2-fluoroethyl)piperazin-1-yl)phenyl)amino)quinazolin-8-yl)phenyl)acrylamide]	< 100 nM		
